Measured values: paper PMC5071162 (ACS chemical neuroscience, 2016)

How the values were obtained:
[1] = tested on: GPR88; details: HTRF cAMP assay; ref 13 (Bi et al.); cited from earlier work
[2] = tested on: P-glycoprotein; details: reported; cited from earlier work
[3] = target: human GPR88 (Homo sapiens, UniProt Q9GZN0); experiment: Lance cAMP assay using stable PPLS-HA-GPR88 CHO cells; type: cell-based; details: EC50
Sequence of human GPR88 (Q9GZN0 whole entry): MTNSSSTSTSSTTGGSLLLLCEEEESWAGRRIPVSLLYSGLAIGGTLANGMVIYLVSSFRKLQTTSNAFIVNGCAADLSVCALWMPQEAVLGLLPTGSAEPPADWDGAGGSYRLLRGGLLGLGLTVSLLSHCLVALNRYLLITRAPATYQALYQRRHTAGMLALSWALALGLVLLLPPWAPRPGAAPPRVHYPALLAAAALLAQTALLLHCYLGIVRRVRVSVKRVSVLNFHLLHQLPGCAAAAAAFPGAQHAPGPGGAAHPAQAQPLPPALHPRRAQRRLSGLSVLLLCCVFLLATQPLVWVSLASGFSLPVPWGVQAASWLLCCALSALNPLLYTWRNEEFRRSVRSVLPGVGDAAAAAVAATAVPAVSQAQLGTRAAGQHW

In the case of CCCc1ccc(-c2ccc(N(C[C@@H](N)[C@@H](C)CC)C(=O)[C@@H]3C[C@H]3c3ccccn3)cc2)cc1 (relative stereo) [compound 1, (1R*,2R*)-2-(pyridin-2-yl)-cyclopropanecarboxylic acid ((2S,3S)-2-amino-3-methylpentyl)-(4′-propylbiphenyl-4-yl)-amide], the P-glycoprotein substrate [2] is given as “P-glycoprotein substrate”.

CC[C@H](C)[C@H](N)CN(C(=O)[C@@H]1C[C@H]1c1ccccn1)c1ccc(-c2ccc(OC(F)(F)F)cc2)cc1 (relative stereo) [5k, (1R*,2R*)-2-(Pyridin-2-yl)cyclopropanecarboxylic Acid [(2S,3S)-2-Amino-3-methylpentyl]-(4′-trifluoromethoxybiphenyl-4-yl)amide] showed an EC50 [3] of 0.139 µM.
